{"source": "patent US10335048B2", "about": "“High-resolution metabolic neuroimaging” (Oregon Health & Science University, priority 2013, dated 2019)", "key": {"[1]": {"details": "human, in vivo", "excerpt": "A 7 T [Tesla] whole-body MRI instrument (Siemens, Erlangen Germany), with quadrature transmission and 24-channel phased-array receive head RF coils, was used. Dynamic measurements employed a single-slice inversion recovery (IR) turboflash technique (Haase A. Snapshot FLASH MRI. Applications to T1, T2, and chemical-shift imaging. Magn. Reson. Med. 1990; 13: 77-89), sampling magnetization eight post-inversion times [TIs]: the inversion pulse was non-selective. […] Gadoteridol [ProHance; Bracco Diagnostics, Inc.] was injected into an antecubital vein catheter at 2.5 mL/s using a power injector [Medrad] to deliver a dose of 28 μmol/kg (typically ^˜5 mL), followed by a 15 mL saline flush at the same rate. […] Parametric R1 maps were calculated on a voxel basis by fitting the signal magnitude at each TI with a full Bloch simulation incorporating all RF pulses and delays. […]\nDynamic measurements were obtained using a single-slice inversion recovery (IR) turboflash technique that sampled magnetization at eight time points post inversion. […] Parametric R1 maps were calculated on a voxel basis by fitting the magnitude signal intensity at each inversion time to a full Bloch simulation that incorporated all RF pulses and delays and modeled the recovery from inversion as a two-parameter single exponential using a gradient expansion algorithm. […]"}, "[2]": {"test_system": "human prostate tumor", "details": "cited from earlier work"}, "[3]": {"test_system": "Na+/K+-ATPase", "details": "within 15 minutes of direct application to the striatum; cited from earlier work"}, "[4]": {"details": "human, in vivo, iv; cited from earlier work"}}}
{"compound": "CC(O)CN1CCN(CC(=O)[O-])CCN(CC(=O)[O-])CCN(CC(=O)[O-])CC1.[Gd+3]", "note": "(stereo not shown) [GdHPDO3A, gadoteridol]", "values": [{"measurement": "maximum K^trans in the lesion center", "setting": "[1]", "value": "above 2×10^−3 min^−1"}]}
{"compound": "CC(=O)[13C](=O)O", "note": "[[1-^13C]pyruvate]", "values": [{"measurement": "[1-13C]pyruvate to [1-13C]lactate conversion rate constant", "setting": "[2]", "value": 0.045, "unit": "s⁻¹"}]}
{"compound": "C[C@@H]1O[C@@H](O[C@H]2C[C@@H](O)[C@]3(CO)[C@H]4[C@H](O)C[C@]5(C)[C@@H](C6=CC(=O)OC6)CC[C@]5(O)[C@@H]4CC[C@]3(O)C2)[C@H](O)[C@H](O)[C@H]1O", "note": "[ouabain]", "values": [{"measurement": "ADC drop", "setting": "[3]", "value": 40, "unit": "%"}]}
{"compound": "ferumoxytol [Fe-tol]", "values": [{"measurement": "plasma t1/2", "setting": "[4]", "value": 14, "unit": "h"}]}
